Data published in US8101212B2, “Bioactive botanical cosmetic compositions and processes for their production” (Akzo Nobel Surface Chemistry LLC, priority 2002, dated 2012).
Converted amounts (≈) assume the structure as drawn.

Key:
3T3 fibroblasts = experiment: Neutral red uptake (NRU) cytotoxicity test; type: cell-based; parameters: key to Cell Morphology: NCM: Normal Cell Morphology; MLT: Moderate Level of Toxicity
Source text: As an example, a test involving neutral red uptake (NRU) by 3T3 fibroblasts, which is commonly used for determination of cytotoxicity, was utilized to assess cytotoxicity of cosmetic botanical ingredients. The NRU value is proportional to the number of viable cells in this in vitro test population.

[1] = Superoxide scavenging activity (xanthine oxidase system, cytochrome c reduction); type: biochemical
Source text: Reactive oxygen species generated by activated inflammatory cells (endogenous or exogenous) create specific oxidant which was used to provide the measurements of superoxide scavenging activity. The assay used for evaluation of superoxide scavenging activity relates to the one form of antioxidant activity, which is of benefit in neutralizing the damage associated with oxidation. To generate superoxide anions in high yield and in a controlled fashion, an enzymatic system (xanthine oxidase) was used. The conversion of […] by this enzyme generates amounts of superoxide anions, which are stoichiometric with the amount of substrate provided. The assay used was based on the reduction of cytochrome c from its ferric to ferrous form as a sensitive measure of superoxide levels. […] Method 7: Method for Determination of Superoxide Scavenging Activity. The enzymatic system, which uses xanthine oxidase (a purified enzyme preparation produced by “Sigma”), was used to generate superoxide anions in high yield and in a controlled fashion. The conversion of xanthine to hydroxanthine by this enzyme generates amounts of superoxide anions and reduction of ferricytochrome c to ferrocytochrome c was used as a sensitive measure of superoxide levels. […]

gelatinase B (MMP-9) = target: T1, gelatinase B (MMP-9) (Homo sapiens, UniProt P14780); experiment: Gelatinase B inhibitory activity (MMP-9 Activity ELISA); type: biochemical
T1 construct: purchased Amersham Pharmacia
Source text: Neutrophils contain two major enzymes from the class of matrix metalloproteinases, which collectively are implicated in extensive connective tissue destruction: neutrophil collagenase (MMP-8) and gelatinase B (MMP-9). Because elastase has poor activity against native collagen, and neutrophil collagenase alone cannot solubilize the connective tissue protein by itself, gelatinase B is considered as a major contributor to inflammatory injury to the extracellular matrix. A specific assay for this enzyme was used to evaluate the potential of cosmetic botanical ingredients to inhibit degradation of the extracellular matrix mediated by inflammatory cell-derived matrix metalloproteinases. Gelatinase B activity was detected by hydrolysis of a low molecular weight synthetic substrate (APMA). Inhibitors of gelatinase B diminish the accelerating rate of enzyme reaction product formation in a dose-dependent fashion. Such enzyme inhibition was found when tested cosmetic ingredients were added to the reaction mixture. Method 6: Method for Determination of Gelatinase B Inhibitory Activity. […] The enzymatic activity was detected at 405 nm by hydrolysis of a low molecular weight synthetic substrate for Gelatinase B: APMA. […]

T1 sequence (P14780 94-707): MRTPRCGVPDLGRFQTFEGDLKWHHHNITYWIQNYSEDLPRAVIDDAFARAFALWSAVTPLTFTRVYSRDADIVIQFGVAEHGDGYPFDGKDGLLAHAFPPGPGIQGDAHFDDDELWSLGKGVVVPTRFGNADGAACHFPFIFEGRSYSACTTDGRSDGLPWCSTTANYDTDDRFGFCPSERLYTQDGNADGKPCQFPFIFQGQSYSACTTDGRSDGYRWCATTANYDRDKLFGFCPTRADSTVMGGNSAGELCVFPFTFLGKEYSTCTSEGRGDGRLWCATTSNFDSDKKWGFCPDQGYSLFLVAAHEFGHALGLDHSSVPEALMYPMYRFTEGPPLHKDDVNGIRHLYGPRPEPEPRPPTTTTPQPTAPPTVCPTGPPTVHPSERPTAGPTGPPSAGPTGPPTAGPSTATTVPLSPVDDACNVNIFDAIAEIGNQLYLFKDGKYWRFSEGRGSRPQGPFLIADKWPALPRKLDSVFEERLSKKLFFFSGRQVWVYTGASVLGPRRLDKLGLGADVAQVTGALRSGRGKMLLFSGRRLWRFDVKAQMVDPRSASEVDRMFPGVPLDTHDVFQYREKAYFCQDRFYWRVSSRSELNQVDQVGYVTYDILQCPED

IC50 (superoxide scavenging activity) ([1]; Tables 35 and 36) | IC50 (gelatinase B (MMP-9)) | inhibition at 100 µg/mL (gelatinase B (MMP-9); read-out: % Inhibition [100 μg/ml]) | Compound | NRU50 of positive control (3T3 fibroblasts) | Cell Morphology (3T3 fibroblasts; Table 27) | Cell Morphology (3T3 fibroblasts; Table 28, marigold flower products) | NRU50 (3T3 fibroblasts; Tables 27 and 28) | ICR50 ([1]; Table 29)
 |  |  | EGF: Epidermal Growth Factor (EGF) used as a positive control | > 2,500 μg/ml | NCM | NCM | >2,500 μg Dry Matter/mL | 
26.5 µg/mL (≈ 73.5 µM) | 83.3 µM | 91% | O=C(/C=C/c1ccc(O)c(O)c1)O[C@H](Cc1ccc(O)c(O)c1)C(=O)O [Rosmarinic Acid, rosmarinic acid] |  |  |  |  | 26.5 μg Dry Matter/mL
